In publication PMC12390655 (Viruses, 2025):
Ends that are not written are not given here.

Tests used:
[1] = molecular target: monopartite NLS peptide (mpNLS) from the SV40 large T antigen (SV40); test: fluorescence polarisation
[2] = molecular target: eVP24–KPNA5-ΔIBB complex (Homo sapiens, UniProt O15131); test: biochemical; type: binding, Human KPNA5; Ebola VP24

Row | Substance | Kd [1] | Kd [2]
1 | Human KPNA5 aa 66–508 (KPNA5-ΔIBB) (domain or fragment) | 5.3 µM | 
2 | KRPAATKKAGQAKKKK [bpNLS] |  | 0.21 µM
3 | STPPKKKRKVE [mpNLS] |  | 5.2 µM
